The values that follow come from article PMC8859269, “Lichenysin Production by Bacillus licheniformis Food Isolates and Toxicity to Human Cells” (Frontiers in Microbiology, 2022).

Each structure is given as a SMILES string. ≈ marks a conversion by molar mass, not a printed value. Entries after “also recorded” stand apart in the source; their conditions may differ. Read-outs that look alike come from different tables or passages of the source. Numbered stars: 1 amine (or outer) side, 2 acyl side, 3 side chain; on linkers, the order of the positions; unused ones are H or OH. Bridge positions count the residues as written; N and C are the ends. Square brackets hold non-standard residues; d marks the D form. Peptide text beside a SMILES is read from it. X2 = CC(C)CCCCCCCCC[C@H](CC(=O)[*:1])O[*:2]

One data set concerns pig ileum organoids. Briefly: alamarBlue cytotoxicity assay, pig ileum organoids. To be noted: 200 μM, 72 h. Type of data set: cell-based. Here is the method: (§1) To perform cytotoxicity assay, two batches of concentrated lichenysin were prepared from biomass grown on LB agar plates as described in section “Extraction of Lichenysin From Biomass Collected From Surface Growth on LB Agar and Skimmed Milk Agar.” Instead of using 150 mg biomass, lichenysin was extracted from 6.5 g of biomass from strain B4123, and dissolved in a final volume of 300 μl methanol. A small aliquot of 1 μl was taken to determine the concentration of the concentrated lichenysin extract via Reversed-Phase High-Performance Liquid Chromatography – Electro Spray Ionization Mass Spectrometry (RP-HPLC-ESI-MS). […]
(§2) The alamarBlue (Thermo Fischer Scientific) fluorometric assay was used to examine the cytotoxicity of lichenysin and surfactin toward two human cell lineages (HEK293, Caco-2) and ileum organoids from pigs. Culturing medium DMEM with Alamar blue (i.e., a no-cells control) and cells exposed to 10% DMSO were used to correct for background fluorescence and cell death, respectively. […]
(§3) The alamarBlue assay was performed as described in [Burczynski et al. (2000)], [Hamid et al. (2004)], and [Rampersad (2012)]. […] The fluorescence at the emission wavelength of 590 nm was measured with a SpectraMax M5 (Molecular Devices, San Jose, CA, United States) and expressed as relative fluorescence units. […]
(§4) The cell viability (%) was calculated by using the formula: […]
Background: Alamar Blue is a resazurin reagent that responds to reducing activity.

The nature of data set [1]: alamarBlue cytotoxicity assay, pig ileum organoids. Type of data set: cell-based. To be noted: 72 h exposure, alamarBlue, read-out: IC50 (cytotoxic level). The protocol:
as §1, §2, §3, §4

Data set [2] is described as follows: alamarBlue cytotoxicity assay, HEK293 cells. Type of data set: cell-based, human. The following applies: human; HEK293, 72 h exposure, alamarBlue; read-out: IC50 (cytotoxic level). The protocol: as §1, §2, §3, §4
Data set [3] relates to Human Embryonic Kidney (HEK293) cells. Description: alamarBlue cytotoxicity assay, HEK293 cells. It is filed as cell-based. To be noted: HEK293, 200 μM (∼200 μg/ml), exposure for 72 h. Here is the method: as §1, §2, §3, §4
Data set [4] deals with Caco-2 human intestinal epithelial cells. Description: alamarBlue cytotoxicity assay, Caco-2 cells. It is filed as cell-based. To be noted: Homo sapiens, Caco-2, 72 h. The protocol:
(§5) To perform cytotoxicity assay, two batches of concentrated lichenysin were prepared from biomass grown on LB agar plates as described in section “Extraction of Lichenysin From Biomass Collected From Surface Growth on LB Agar and Skimmed Milk Agar.” Instead of using 150 mg biomass, lichenysin was extracted from 6.5 g of biomass from strain B4123, and dissolved in a final volume of 300 μl methanol. A small aliquot of 1 μl was taken to determine the concentration of the concentrated lichenysin extract via Reversed-Phase High-Performance Liquid Chromatography – Electro Spray Ionization Mass Spectrometry (RP-HPLC-ESI-MS). The remaining concentrated extract was entirely evaporated under a flow of nitrogen at 40°C in a heating block. The dry residue was resuspended in either 99% Dimethyl Sulfoxide (DMSO) or Dulbecco’s Modified Eagle Medium (DMEM; Gibco, Thermo Fischer Scientific, Bleiswijk, Netherlands) without phenol red serum or antibiotics. Surfactin (purchased from Merck) was also used in cytotoxicity assays by dissolving 10 mg in 1 ml of distilled water (10 mM) (with an adjusted pH of ∼11.7 to obtain full solubility). Both lichenysin and surfactin were diluted to the desired concentration in DMEM medium without phenol red, serum and antibiotics before adding to the cells.
(§6) Human Embryonic Kidney (HEK293) cells were obtained from Invivogen (San Diego, CA, United States), and Caco-2 human intestinal epithelial cells (ATCC HTB-37) were purchased from the American Type Culture Collection (Manassas, VA, United States). Both cell lines were maintained in DMEM medium containing 10 % Fetal Bovine Serum (FBS) (Thermo Fischer Scientific) and 1 % penicillin/streptomycin (Merck) to attain a confluent growth. The grown HEK293 and Caco-2 cells were seeded and suspended at a final concentration of 2 × 10^5 cells/ml (in 200 μl) in 96 wells-plates (Greiner). […]
as §2
(§7) The alamarBlue assay was performed as described in [Burczynski et al. (2000)], [Hamid et al. (2004)], and [Rampersad (2012)]. […] The fluorescence at the emission wavelength of 590 nm was measured with a SpectraMax M5 (Molecular Devices, San Jose, CA, United States) and expressed as relative fluorescence units. The average fluorescence of the no-cells control was used to normalize all recorded fluorescence emission values.
as §4

Data set [5] can be described thus: alamarBlue cytotoxicity assay, Caco-2 cells. Type of data set: cell-based, human. To be noted: human, Caco-2, 72 h exposure, alamarBlue; read-out: IC50 (cytotoxic level). Here is the method:
as §5, §6, §2, §7, §4

Take `CC(C)CCCCCCCCC[C@@H]1CC(=O)N[C@@H](CCC(=O)O)C(=O)N[C@@H](CC(C)C)C(=O)N[C@H](CC(C)C)C(=O)N[C@@H](C(C)C)C(=O)N[C@@H](CC(=O)O)C(=O)N[C@H](CC(C)C)C(=O)N[C@@H](CC(C)C)C(=O)O1` [Surfactin, cyclo-[Glu^1-Leu^2-Leu^3-Val^4-Asp^5-Leu^6-Leu^7 − − β-OH fatty acid]] (EL[dL]VD[dL]L; linker N-C via X2): the “toxicity at the highest tested concentration” value is reported as “did not show toxicity; also recorded: no toxicity was seen” with pig ileum organoids and “not toxic” in data set [3]. The IC50 was more than 200 µg/mL in data set [1]; more than 200 µg/mL in data set [2]; 23.4 µg/mL in data set [4] (Caco-2, 72 h incubation, read-out: concentration needed to reduce cell viability by 50% (IC50)); 1.37 µM in data set [4] (in log10 scale, read-out: IC50 in log10 scale (converted)); 23.5 µM in data set [4] (read-out: IC50); 23.5 µg/mL (≈ 22.7 µM) in data set [5].
